We go through nine compounds from patent publication US20060052409A1, “Therapeutic or preventive agent for nausea/vomiting” (priority 2002, published 2006).

Structures are written as SMILES.

Data set [1] deals with morphine-induced nausea and vomiting. The data set is described as follows: Morphine-induced nausea and vomiting in beagles. Format: in vivo. The following applies: male beagles; for Anti-emetic effect of test compounds: dose at which the test compounds inhibited nausea and vomiting due to morphine: test compound i.v. 15 minutes before morphine 0.5 mg/kg i.v., observed for ten minutes. The method, then: Male beagles were used for the experiment. Frequencies of nausea and vomiting were visually observed for ten minutes after the administration of morphine.
Morphine (0.5 mg/kg) was intravenously administered into the foreleg of male beagles. […] The test compounds were intravenously administered into the foreleg 15 minutes before the administration of morphine.

For data set [2], the system named is nausea and vomiting due to morphine. The following applies: literature report; cited from earlier work.
Data set [3] concerns morphine-induced nausea and vomiting. The data set is described as follows: Morphine-induced nausea and vomiting in ferrets. As to conditions: male ferrets; morphine 0.1-3 mg/kg s.c.; observed for one hour. Format: in vivo. Here is the method:
Male ferrets were used for the experiment. Frequencies of nausea and vomiting were visually observed from immediately after the administration of morphine to one hour after the administration.
Morphine (0.1-3 mg/kg) was subcutaneously administered to male ferrets. […] The inhibitory effects of NTI on nausea and vomiting due to morphine were then studied. NTI (5 mg/kg) was subcutaneously administered 30 minutes before the administration of morphine (0.6 mg/kg).

As for `C[S+]([O-])c1cccc2c3c([nH]c12)[C@@H]1Oc2c(O)ccc4c2C12CCN(CC1CC1)[C@H](C4)[C@]2(O)C3` (stereo partly drawn) [Compound 2, 17-(cyclopropylmethyl)-6,7-didehydro-4,5α-epoxy-3,14β-dihydroxy-7′-methylsulfinyl-6,7-2′,3′-indolomorphinan], the “Anti-emetic effect of test compounds: dose at which the test compounds inhibited nausea and vomiting due to morphine” value in data set [1] was 1.0 mg/kg.

Regarding `Oc1ccc2c3c1O[C@H]1c4c(c5cc(F)cc6c5n4CCC6)C[C@@]4(O)[C@@H](C2)N(CC2CC2)CCC314` [Compound 3, 17-(cyclopropylmethyl)-6,7-didehydro-4,5α-epoxy-3,14β-dihydroxy-1′,7′-trimethylene-5′-fluoro-6,7-2′,3′-indolomorphinan], the “Anti-emetic effect of test compounds: dose at which the test compounds inhibited nausea and vomiting due to morphine” value in data set [1] stood at 1.0 mg/kg.

Regarding `Cn1c2c(c3ccc4c(c31)CCCC4)C[C@@]1(O)[C@H]3Cc4ccc(O)c5c4C1(CCN3CC1CC1)[C@H]2O5` [Compound 4, 17-(cyclopropylmethyl)-6,7-didehydro-4,5α-epoxy-3,14β-dihydroxy-6′,7′-cyclohexeno-1′-methyl-6,7-2′,3′-indolomorphinan], in data set [1], the “Anti-emetic effect of test compounds: dose at which the test compounds inhibited nausea and vomiting due to morphine” value is listed as 3.0 mg/kg.

As for `Oc1ccc2c3c1O[C@H]1c4nc5ccccc5cc4C[C@@]4(O)[C@@H](C2)N(CC2CC2)CCC314` [Compound 5, 17-(cyclopropylmethyl)-6,7-didehydro-4,5α-epoxy-3,14β-dihydroxy-6,7-2′,3′-quinolinomorphinan], the “Anti-emetic effect of test compounds: dose at which the test compounds inhibited nausea and vomiting due to morphine” value in data set [1] is listed as 1.0 mg/kg.

For the compound `Cc1c2c(nc3ccccc13)[C@@H]1Oc3c(O)ccc4c3C13CCN(CC1CC1)[C@H](C4)[C@]3(O)C2` [Compound 6, 17-(cyclopropylmethyl)-6,7-didehydro-4,5α-epoxy-3,14β-dihydroxy-6,7-2′,3′-(4′-methylquinolino)morphinan], the “Anti-emetic effect of test compounds: dose at which the test compounds inhibited nausea and vomiting due to morphine” value in data set [1] amounted to 3.0 mg/kg.

With `O=C1/C(=C/c2ccccc2)C[C@@]2(O)[C@H]3Cc4ccc(O)c5c4[C@@]2(CCN3CC2CC2)[C@H]1O5` [Compound 7, 7-benzylidene-17-(cyclopropylmethyl)-4,5α-epoxy-3,14β-dihydroxy-6-oxomorphinan], the “Anti-emetic effect of test compounds: dose at which the test compounds inhibited nausea and vomiting due to morphine” value in data set [1] was 1.0 mg/kg.

Turning to `C=CCN(CC=C)[C@@H](Cc1ccc(O)cc1)C(=O)NCC(=O)NCCS[C@@H](Cc1ccccc1)C(=O)N[C@@H](CC(C)C)C(=O)O` [ICI-154129], in data set [2], the “Anti-emetic effect against nausea and vomiting due to morphine” value is “cannot inhibit vomiting due to morphine”.

For the compound `CN1CC[C@]23c4c5ccc(O)c4O[C@H]2[C@@H](O)C=C[C@H]3[C@H]1C5` [Morphine, morphine, reference compound], the “Induction of nausea and vomiting” value is recorded as “remarkably induced at lower doses” in data set [3] and “remarkably induced within 5 minutes” in data set [1] (morphine 0.5 mg/kg i.v.).

Turning to `C=CCN1CC[C@]23c4c5ccc(O)c4O[C@H]2C(=O)CC[C@@]3(O)[C@H]1C5` [naloxone], the “Anti-emetic effect against nausea and vomiting due to morphine” value in data set [2] was “shows anti-emetic effects”.
